Reference: the supplement of paper PMC10307832

Experiments:
Assay in all cases: relative viability (nuclei count vs DMSO), 5 days (fraction); higher = more cells survive
ABC-1 = tested on: ABC-1
How it was run: (§1)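 Relative viability was taken as the ratio of nuclei in treated wells to nuclei in vehicle wells. Lung cancer cell lines in 1536-well plates received compounds by pin tool one day after seeding, either one drug alone or a fixed anchor-drug dose plus five library-drug doses (not always all listed) in √10 steps. Nuclei were counted on 4× images after 5 days of treatment, and values are medians of duplicate plates.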

COR-L23 = tested on: COR-L23
How it was run: as §1

ChaGo-K-1 = tested on: ChaGo-K-1
How it was run: as §1

EMC-BAC-2 = tested on: EMC-BAC-2
How it was run: as §1

HARA = tested on: HARA
How it was run: as §1

HCC-15 = tested on: HCC-15
How it was run: as §1

HCC-366 = tested on: HCC-366
How it was run: as §1

HCC-78 = tested on: HCC-78
How it was run: as §1

HOP-62 = tested on: HOP-62
How it was run: as §1

LC-2-ad = tested on: LC-2-ad
How it was run: as §1

NCI-H1395 = tested on: NCI-H1395
How it was run: as §1

NCI-H1793 = tested on: NCI-H1793
How it was run: as §1

NCI-H1944 = tested on: NCI-H1944
How it was run: as §1

NCI-H1993 = tested on: NCI-H1993
How it was run: as §1

NCI-H2023 = tested on: NCI-H2023
How it was run: as §1

NCI-H2126 = tested on: NCI-H2126
How it was run: as §1

NCI-H23 = tested on: NCI-H23
How it was run: as §1

NCI-H2405 = tested on: NCI-H2405
How it was run: as §1

NCI-H358 = tested on: NCI-H358
How it was run: as §1

NCI-H838 = tested on: NCI-H838
How it was run: as §1

SK-LU-1 = tested on: SK-LU-1
How it was run: as §1

O=c1cc(-c2cccc3c2Sc2ccccc2S3)oc(N2CCOCC2)c1 + Nc1ncn([C@H]2C[C@H](O)[C@@H](CO)O2)c(=O)n1 [Decitabine] (partner 2 µM) was tested, and the relative viability (ABC-1; first compound 0.08 µM) was 0.993, the relative viability (ABC-1; first compound 0.253 µM) was 1.16 and the relative viability (ABC-1; first compound 0.8 µM) was 1.33. For the same compound, the relative viability (ABC-1; first compound 2.53 µM) was 1.17, the relative viability (ABC-1; first compound 8 µM) was 1.19 and the relative viability (COR-L23; first compound 0.08 µM) was 0.429. For the same compound, the relative viability (COR-L23; first compound 0.253 µM) was 0.513, the relative viability (COR-L23; first compound 0.8 µM) was 0.386 and the relative viability (COR-L23; first compound 2.53 µM) was 0.508. The relative viability (COR-L23; first compound 8 µM) was 0.588, the relative viability (ChaGo-K-1; first compound 0.08 µM) was 0.542 and the relative viability (ChaGo-K-1; first compound 0.253 µM) was 0.555. It also gave a relative viability (ChaGo-K-1; first compound 0.8 µM) of 0.541, a relative viability (ChaGo-K-1; first compound 2.53 µM) of 0.51 and a relative viability (ChaGo-K-1; first compound 8 µM) of 0.555. For the same compound, the relative viability (EMC-BAC-2; first compound 0.08 µM) was 0.91, the relative viability (EMC-BAC-2; first compound 0.253 µM) was 1.1 and the relative viability (EMC-BAC-2; first compound 0.8 µM) was 1.01. The relative viability (EMC-BAC-2; first compound 2.53 µM) was 1.04, the relative viability (EMC-BAC-2; first compound 8 µM) was 1.12 and the relative viability (HARA; first compound 0.08 µM) was 0.634. It also gave a relative viability (HARA; first compound 0.253 µM) of 0.52, a relative viability (HARA; first compound 0.8 µM) of 0.483 and a relative viability (HARA; first compound 2.53 µM) of 0.555. The relative viability (HARA; first compound 8 µM) was 0.49, the relative viability (HCC-15; first compound 0.08 µM) was 0.677 and the relative viability (HCC-15; first compound 0.253 µM) was 0.807. It also gave a relative viability (HCC-15; first compound 0.8 µM) of 0.64, a relative viability (HCC-15; first compound 2.53 µM) of 0.589 and a relative viability (HCC-15; first compound 8 µM) of 0.579. For the same compound, the relative viability (HCC-366; first compound 0.08 µM) was 0.324, the relative viability (HCC-366; first compound 0.253 µM) was 0.486 and the relative viability (HCC-366; first compound 0.8 µM) was 0.363. For the same compound, the relative viability (HCC-366; first compound 2.53 µM) was 0.273, the relative viability (HCC-366; first compound 8 µM) was 0.33 and the relative viability (HCC-78; first compound 0.08 µM) was 0.653. It also gave a relative viability (HCC-78; first compound 0.253 µM) of 0.906, a relative viability (HCC-78; first compound 0.8 µM) of 0.647 and a relative viability (HCC-78; first compound 2.53 µM) of 0.664. For the same compound, the relative viability (HCC-78; first compound 8 µM) was 0.74, the relative viability (HOP-62; first compound 0.08 µM) was 0.206 and the relative viability (HOP-62; first compound 0.253 µM) was 0.221. For the same compound, the relative viability (HOP-62; first compound 0.8 µM) was 0.187, the relative viability (HOP-62; first compound 2.53 µM) was 0.228 and the relative viability (HOP-62; first compound 8 µM) was 0.234. It also gave a relative viability (LC-2-ad; first compound 0.08 µM) of 0.786, a relative viability (LC-2-ad; first compound 0.253 µM) of 0.928 and a relative viability (LC-2-ad; first compound 0.8 µM) of 0.905. For the same compound, the relative viability (LC-2-ad; first compound 2.53 µM) was 0.761, the relative viability (LC-2-ad; first compound 8 µM) was 0.793 and the relative viability (NCI-H1395; first compound 0.08 µM) was 0.711. It also gave a relative viability (NCI-H1395; first compound 0.253 µM) of 0.825, a relative viability (NCI-H1395; first compound 0.8 µM) of 0.736 and a relative viability (NCI-H1395; first compound 2.53 µM) of 0.718. It also gave a relative viability (NCI-H1395; first compound 8 µM) of 0.763, a relative viability (NCI-H1793; first compound 0.08 µM) of 0.536 and a relative viability (NCI-H1793; first compound 0.253 µM) of 0.614. The relative viability (NCI-H1793; first compound 0.8 µM) was 0.478, the relative viability (NCI-H1793; first compound 2.53 µM) was 0.487 and the relative viability (NCI-H1793; first compound 8 µM) was 0.476. It also gave a relative viability (NCI-H1944; first compound 0.08 µM) of 0.406, a relative viability (NCI-H1944; first compound 0.253 µM) of 0.448 and a relative viability (NCI-H1944; first compound 0.8 µM) of 0.457. The relative viability (NCI-H1944; first compound 2.53 µM) was 0.432, the relative viability (NCI-H1944; first compound 8 µM) was 0.468 and the relative viability (NCI-H1993; first compound 0.08 µM) was 0.593. The relative viability (NCI-H1993; first compound 0.253 µM) was 0.61, the relative viability (NCI-H1993; first compound 0.8 µM) was 0.467 and the relative viability (NCI-H1993; first compound 2.53 µM) was 0.586. The relative viability (NCI-H1993; first compound 8 µM) was 0.577, the relative viability (NCI-H2023; first compound 0.08 µM) was 0.214 and the relative viability (NCI-H2023; first compound 0.253 µM) was 0.276. It also gave a relative viability (NCI-H2023; first compound 0.8 µM) of 0.25, a relative viability (NCI-H2023; first compound 2.53 µM) of 0.245 and a relative viability (NCI-H2023; first compound 8 µM) of 0.229. It also gave a relative viability (NCI-H2126; first compound 0.08 µM) of 0.583, a relative viability (NCI-H2126; first compound 0.253 µM) of 0.581 and a relative viability (NCI-H2126; first compound 0.8 µM) of 0.612. The relative viability (NCI-H2126; first compound 2.53 µM) was 0.534, the relative viability (NCI-H2126; first compound 8 µM) was 0.54 and the relative viability (NCI-H23; first compound 0.08 µM) was 0.274. For the same compound, the relative viability (NCI-H23; first compound 0.253 µM) was 0.314, the relative viability (NCI-H23; first compound 0.8 µM) was 0.297 and the relative viability (NCI-H23; first compound 2.53 µM) was 0.264. It also gave a relative viability (NCI-H23; first compound 8 µM) of 0.293, a relative viability (NCI-H2405; first compound 0.08 µM) of 0.697 and a relative viability (NCI-H2405; first compound 0.253 µM) of 0.864. It also gave a relative viability (NCI-H2405; first compound 0.8 µM) of 0.677, a relative viability (NCI-H2405; first compound 2.53 µM) of 0.695 and a relative viability (NCI-H2405; first compound 8 µM) of 0.756. For the same compound, the relative viability (NCI-H358; first compound 0.08 µM) was 0.199, the relative viability (NCI-H358; first compound 0.253 µM) was 0.205 and the relative viability (NCI-H358; first compound 0.8 µM) was 0.2. The relative viability (NCI-H358; first compound 2.53 µM) was 0.25, the relative viability (NCI-H358; first compound 8 µM) was 0.214 and the relative viability (NCI-H838; first compound 0.08 µM) was 0.471. It also gave a relative viability (NCI-H838; first compound 0.253 µM) of 0.519, a relative viability (NCI-H838; first compound 0.8 µM) of 0.457 and a relative viability (NCI-H838; first compound 2.53 µM) of 0.452. The relative viability (NCI-H838; first compound 8 µM) was 0.497, the relative viability (SK-LU-1; first compound 0.08 µM) was 0.678 and the relative viability (SK-LU-1; first compound 0.253 µM) was 0.813. For the same compound, the relative viability (SK-LU-1; first compound 0.8 µM) was 0.755, the relative viability (SK-LU-1; first compound 2.53 µM) was 0.643 and the relative viability (SK-LU-1; first compound 8 µM) was 0.648.
